For 33 compounds, IC50 results are on record in patent US20240279236A1, “COMPOUNDS AND METHODS OF TREATING TUBERCULOSIS” (Fimbrion Therapeutics, Inc., priority 2021, published 2024).

As a reminder, the IC50 is the concentration at which inhibition is half-maximal. Higher therefore signals weaker potency in that assay.

The test system of the test is WT Mtb Erdman strain. Description: Microplate Alamar Blue Assay (MABA), Mtb growth inhibition. It is filed as cell-based, Mycobacterium tuberculosis. The note with it: Mycobacterium tuberculosis, ERDMAN, 168 h, Middlebrook 7H9 media, 7 days at 37° C. in 5% CO2. (Resazurin is reduced to fluorescent resorufin, in cell work by metabolically active cells.)
Regarding `Cc1cc2c(NCCCc3ccc(N4CCOCC4)cc3)nc(C(F)(F)F)nc2s1` [Example 422, 6-methyl-N-(3-(4-morpholinophenyl)propyl)-2-(trifluoromethyl) thieno[2,3-d]pyrimidin-4-amine], the half-inhibitory concentration (IC50) was 2100 nM.

`CSc1nc(NCCCc2ccc(-c3cnc(F)cn3)cc2)c2nc(C)sc2n1` [Example 424, N-(3-[4-(5-fluoropyrazin-2-yl)phenyl]propyl)-2-methyl-5-(methylsulfanyl)-[1,3]thiazolo[5,4-d]pyrimidin-7-amine] had a 50% inhibitory concentration (IC50) of 41 nM.

On to `CSc1nc(NCCCc2ccc(-c3ccc(Cl)cc3)cc2)c2cc(C)sc2n1` [Example 425, N-(3-(4′-chloro-[1,1′-biphenyl]-4-yl)propyl)-6-methyl-2-(methylthio)thieno[2,3-d]pyrimidin-4-amine], for which the IC50 is 17 nM.

On to `Cc1cc2c(NCCCc3ccc(-c4ccc(OC(F)(F)F)cc4)cc3)nc(-c3ccncn3)nc2s1` [Example 426, 6-methyl-2-(pyrimidin-4-yl)-N-(3-(4′-(trifluoromethoxy)-[1,1′-biphenyl]-4-yl)propyl)thieno[2,3-d]pyrimidin-4-amine], for which the half-maximal inhibitory concentration (IC50) was found to be 76 nM.

For the compound `Cc1cc2c(NCCCc3ccc(-c4ccc(C#N)cc4)cc3)nc(-c3ccoc3)nc2s1` [Example 427, 4′-(3-((2-(furan-3-yl)-6-methylthieno[2,3-d]pyrimidin-4-yl)amino)propyl)-[1,1′-biphenyl]-4-carbonitrile], the concentration for half-maximal inhibition (IC50) came out at 16 nM.

Regarding `Cc1cc2c(NCCCc3ccc(-c4ccc(C(F)(F)F)nc4)cc3)nc(-c3ccoc3)nc2s1` [Example 428, 2-(furan-3-yl)-6-methyl-N-(3-(4-(6-(trifluoromethyl)pyridin-3-yl)phenyl)propyl)thieno[2,3-d]pyrimidin-4-amine], half-maximal inhibition (IC50) was put at 20 nM.

Regarding `Cc1cc2c(NCCCc3ccc(-c4ccc(C5CC5)cc4)cc3)nc(-c3ccoc3)nc2s1` [Example 429, N-(3-(4′-cyclopropyl-[1,1′-biphenyl]-4-yl)propyl)-2-(furan-3-yl)-6-methylthieno[2,3-d]pyrimidin-4-amine], the IC50 was found to be 20 nM.

`CSc1nc(NCCCc2ccc(-c3ccc(C4CC4)cc3)cc2)c2cc(C)sc2n1` [Example 430, N-(3-(4′-cyclopropyl-[1,1′-biphenyl]-4-yl)propyl)-6-methyl-2-(methylthio)thieno[2,3-d]pyrimidin-4-amine] displayed an IC50 of 18 nM.

Compound `CSc1nc(NCCCc2ccc(-c3ccc(C(F)(F)F)nc3)cc2)c2cc(C)sc2n1` [Example 431, 6-methyl-2-(methylthio)-N-(3-(4-(6-(trifluoromethyl)pyridin-3-yl)phenyl)propyl)thieno[2,3-d]pyrimidin-4-amine] showed an IC50 of 20 nM.

On to `CSc1nc(NCCCc2ccc(-c3ccc(C#N)cc3)cc2)c2cc(C)sc2n1` [Example 432, 4′-(3-((6-methyl-2-(methylthio)thieno[2,3-d]pyrimidin-4-yl)amino)propyl)-[1,1′-biphenyl]-4-carbonitrile], for which it took 14 nM to reach half-maximal inhibition (IC50).

`Cc1cc2c(NCCCc3ccc(-c4ccc(OC(F)(F)F)cc4)cc3)nc(Cl)nc2s1` [Example 433, 2-chloro-6-methyl-N-(3-(4′-(trifluoromethoxy)-[1,1′-biphenyl]-4-yl)propyl)thieno[2,3-d]pyrimidin-4-amine] came in with a half-inhibitory concentration (IC50) of 54 nM.

In turn, `Cc1cc2c(NCCCc3ccc(-c4ccc(Cl)cc4)cc3)nc(-c3ccoc3)nc2s1` [Example 434, N-(3-(4′-chloro-[1,1′-biphenyl]-4-yl)propyl)-2-(furan-3-yl)-6-methylthieno[2,3-d]pyrimidin-4-amine] came in with a half-maximal inhibitory concentration (IC50) of 10 nM.

`Cc1cc2c(NCCCc3ccc(-c4ccc(Cl)cc4)cc3)nc(Cl)nc2s1` [Example 435, 2-chloro-N-(3-(4′-chloro-[1,1′-biphenyl]-4-yl)propyl)-6-methylthieno[2,3-d]pyrimidin-4-amine]: it took 30 nM to reach half-maximal inhibition (IC50).

Turning to `Cc1cc2c(NCCCc3ccc(-c4ccc(Cl)cc4)cc3)nc(-c3ccc(F)cc3)nc2s1` [Example 436, N-(3-(4′-chloro-[1,1′-biphenyl]-4-yl)propyl)-2-(4-fluorophenyl)-6-methylthieno[2,3-d]pyrimidin-4-amine], the IC50 came out at 220 nM.

Consider `Cc1cc2c(NCCCc3ccc(-c4ccc(C5CC5)cc4)cc3)nc(Cl)nc2s1` [Example 437, 2-chloro-N-(3-(4′-cyclopropyl-[1,1′-biphenyl]-4-yl)propyl)-6-methylthieno[2,3-d]pyrimidin-4-amine], for which half-maximal inhibition (IC50) was put at 85 nM.

In the case of `Cc1cc2c(NCCCc3ccc(-c4ccc(C(F)(F)F)nc4)cc3)nc(Cl)nc2s1` [Example 438, 2-chloro-6-methyl-N-(3-(4-(6-(trifluoromethyl)pyridin-3-yl)phenyl)propyl)thieno[2,3-d]pyrimidin-4-amine], the half-maximal inhibitory concentration (IC50) is 140 nM.

In the case of `Cc1cc2c(NCCCc3ccc(-c4ccc(C#N)cc4)cc3)nc(Cl)nc2s1` [Example 439, 4′-(3-((2-chloro-6-methylthieno[2,3-d]pyrimidin-4-yl)amino)propyl)-[1,1′-biphenyl]-4-carbonitrile], the 50% inhibitory concentration (IC50) was 93 nM.

`Cc1cc2c(NCCCc3ccc(-c4ccc(OC(F)(F)F)cc4)cc3)nc(-c3cccn3C)nc2s1` [Example 440, 6-methyl-2-(1-methyl-1H-pyrrol-2-yl)-N-(3-(4′-(trifluoromethoxy)-[1,1′-biphenyl]-4-yl)propyl)thieno[2,3-d]pyrimidin-4-amine]: 8100 nM corresponded to half-maximal inhibition (IC50).

On to `Cc1cc2c(NCCCc3ccc(-c4ccc(OC(F)(F)F)cc4)cc3)nc(-c3ccn(C)c3)nc2s1` [Example 441, 6-methyl-2-(1-methyl-1H-pyrrol-3-yl)-N-(3-(4′-(trifluoromethoxy)-[1,1′-biphenyl]-4-yl)propyl)thieno[2,3-d]pyrimidin-4-amine], for which the concentration for half-maximal inhibition (IC50) turned out to be 49 nM.

In turn, `Cc1cc2c(NCCCc3ccc(-c4ccc(OC(F)(F)F)cc4)cc3)nc(-c3cnc[nH]3)nc2s1` [Example 442, 2-(1H-imidazol-5-yl)-6-methyl-N-(3-(4′-(trifluoromethoxy)-[1,1′-biphenyl]-4-yl)propyl)thieno[2,3-d]pyrimidin-4-amine] displayed a half-maximal inhibitory concentration (IC50) of 230 nM.

As to `Cc1cc2c(NCCCc3ccc(-c4ccc(OC(F)(F)F)cc4)cc3)nc(-c3cn(C)cn3)nc2s1` [Example 443, 6-methyl-2-(1-methyl-1H-imidazol-4-yl)-N-(3-(4′-(trifluoromethoxy)-[1,1′-biphenyl]-4-yl)propyl)thieno[2,3-d]pyrimidin-4-amine], the concentration for half-maximal inhibition (IC50) amounted to 300 nM.

Compound `Cc1cc2c(NCCCc3ccc(-c4ccc(OC(F)(F)F)cc4)cc3)nc(-c3cncn3C)nc2s1` [Example 444, 6-methyl-2-(1-methyl-1H-imidazol-5-yl)-N-(3-(4′-(trifluoromethoxy)-[1,1′-biphenyl]-4-yl)propyl)thieno[2,3-d]pyrimidin-4-amine] gave a 50% inhibitory concentration (IC50) of 5500 nM.

In turn, `Cc1nc(NCCCc2ccc(-c3ccc(OC(F)(F)F)cc3)cc2)c2cc(C)sc2n1` [Example 445, 2,6-dimethyl-N-(3-(4′-(trifluoromethoxy)-[1,1′-biphenyl]-4-yl)propyl)thieno[2,3-d]pyrimidin-4-amine] had an IC50 of 160 nM.

Consider `Cc1cc2c(NCCCc3ccc(-c4ccc(OC(F)(F)F)cc4)cc3)nc(-c3ncon3)nc2s1` [Example 446, 6-methyl-2-(1,2,4-oxadiazol-3-yl)-N-(3-(4′-(trifluoromethoxy)-[1,1′-biphenyl]-4-yl)propyl)thieno[2,3-d]pyrimidin-4-amine], for which the half-inhibitory concentration (IC50) was found to be 96 nM.

In the case of `Cc1cc2c(NCCCc3ccc(-c4ccc(OC(F)(F)F)cc4)cc3)nc(-c3cnn(C)c3)nc2s1` [Example 447, 6-methyl-2-(1-methyl-1H-pyrazol-4-yl)-N-(3-(4′-(trifluoromethoxy)-[1,1′-biphenyl]-4-yl)propyl)thieno[2,3-d]pyrimidin-4-amine], the IC50 was 57 nM.

With `CCSc1nc(NCCCc2ccc(-c3ccc(OC(F)(F)F)cc3)cc2)c2cc(C)sc2n1` [Example 448, 2-(ethylthio)-6-methyl-N-(3-(4′-(trifluoromethoxy)-[1,1′-biphenyl]-4-yl)propyl)thieno[2,3-d]pyrimidin-4-amine], the IC50 turned out to be 44 nM.

Turning to `Cc1cc2c(NCCCc3ccc(-c4ccc(OC(F)(F)F)cc4)cc3)nc(-c3c(C)noc3C)nc2s1` [Example 449, 2-(3,5-dimethylisoxazol-4-yl)-6-methyl-N-(3-(4′-(trifluoromethoxy)-[1,1′-biphenyl]-4-yl)propyl)thieno[2,3-d]pyrimidin-4-amine], the IC50 is above 1000 nM.

The compound `Cc1cc2c(NCCCc3ccc(-c4ccc(OC(F)(F)F)cc4)cc3)nc(-c3ccn(C)n3)nc2s1` [Example 450, 6-methyl-2-(1-methyl-1H-pyrazol-3-yl)-N-(3-(4′-(trifluoromethoxy)-[1,1′-biphenyl]-4-yl)propyl)thieno[2,3-d]pyrimidin-4-amine] came in with an IC50 of 490 nM.

Compound `Cc1cc2c(NCCCc3ccc(-c4ccc(OC(F)(F)F)cc4)cc3)nc(-n3ccnc3)nc2s1` [Example 451, 2-(1H-imidazol-1-yl)-6-methyl-N-(3-(4′-(trifluoromethoxy)-[1,1′-biphenyl]-4-yl)propyl)thieno[2,3-d]pyrimidin-4-amine] returned an IC50 of 1800 nM.

Consider `Cc1cc2c(NCCCc3ccc(-c4ccc(OC(F)(F)F)cc4)cc3)nc(C3CC3)nc2s1` [Example 452], for which inhibition was half-maximal at 76 nM (IC50).

In turn, `Cc1cc2c(NCCCc3ccc(-c4ccc(OC(F)(F)F)cc4)cc3)nc(C3CCC3)nc2s1` [Example 453, 2-cyclobutyl-6-methyl-N-(3-(4′-(trifluoromethoxy)-[1,1′-biphenyl]-4-yl)propyl)thieno[2,3-d]pyrimidin-4-amine] showed an IC50 of 58 nM.

For the compound `Cc1cc2c(NCCCc3ccc(-c4ccc(OC(F)(F)F)cc4)cc3)nc(-c3cn[nH]c3)nc2s1` [Example 454, 6-methyl-2-(1H-pyrazol-4-yl)-N-(3-(4′-(trifluoromethoxy)-[1,1′-biphenyl]-4-yl)propyl)thieno[2,3-d]pyrimidin-4-amine], the half-maximal inhibitory concentration (IC50) is above 1000 nM.

As for `Cc1cc2c(NCCCc3ccc(-c4ccc(OC(F)(F)F)cc4)cc3)nc(C(C)C)nc2s1` [Example 455, 2-isopropyl-6-methyl-N-(3-(4′-(trifluoromethoxy)-[1,1′-biphenyl]-4-yl)propyl)thieno[2,3-d]pyrimidin-4-amine], the half-maximal inhibitory concentration (IC50) is 56 nM.
